Laboratory results from article PMC3205048, “Differential Modulation of Beta-Adrenergic Receptor Signaling by Trace Amine-Associated Receptor 1 Agonists” (PLoS ONE, 2011).
Read-outs that look alike come from different tables or passages of the source.

Experiments:
Assay type in all cases: cell-based
hTAAR1 = target: T1, hTAAR1 (Homo sapiens, UniProt Q96RJ0); assay: cAMP accumulation (AlphaScreen) in HEK293 cells transiently transfected with hTAAR1
T1 construct: Full length human TAAR1 (hTAAR1, NM_138327.1) was subcloned; first 20 amino acids of bovine rhodopsin (N); expressed in transfected cells; host or cells: HEK293, transient transfection, vector pcDps
T1 sequence (Q96RJ0 1-339): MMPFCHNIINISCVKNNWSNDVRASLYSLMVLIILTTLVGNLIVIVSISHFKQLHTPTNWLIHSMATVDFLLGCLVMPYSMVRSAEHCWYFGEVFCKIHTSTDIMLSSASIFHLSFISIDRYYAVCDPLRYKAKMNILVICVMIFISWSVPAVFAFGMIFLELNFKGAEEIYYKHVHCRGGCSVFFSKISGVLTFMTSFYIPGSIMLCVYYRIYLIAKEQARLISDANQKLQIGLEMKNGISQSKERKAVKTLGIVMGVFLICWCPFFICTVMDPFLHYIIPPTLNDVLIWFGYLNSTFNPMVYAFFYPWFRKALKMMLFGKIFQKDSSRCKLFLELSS
Experimental: Figure 2 Functional characterization of hTAAR1 interacting with different trace amines. HEK293 cells transiently transfected with hTAAR1 and were incubated for 45 minutes with […] of PEA, OA and TYR. Basal signaling activity as well as activation of the Gs protein/adenylyl cyclase pathway was determined by AlphaScreen technology. Data represent mean ± SEM of cAMP accumulation after stimulation from 4–5 independent experiments performed in triplicates. […]. Data were analyzed using a paired one-tailed t-test.
Full length human TAAR1 (hTAAR1, NM_138327.1) was subcloned into the eukaryotic expression vector pcDps, N-terminally tagged with an hemagglutinin (5′ […] 3′) epitope via KpnI and SpeI restriction sites. For better cell surface expression hTAAR1 was additionally N-terminally fused with the first 20 amino acids of the bovine Rhodopsin [18], [33]. The human β1-adrenergic receptor (hADRB1, NM_000684.2)-pcDps construct cloned via KpnI/SpeI containing N-terminal (HA)-tag and C-terminal Flag-tag (5′ […] 3′).
Human embryonic kidney cells (HEK293) were cultured in Minimum Essential Medium (MEM) Earle's (Biochrom AG) supplemented with 10% FBS (PAA Laboratories GmbH), 100 U/ml penicillin, and 100 µg/ml streptomycin (Biochrom AG) and 2 mM L-glutamine (Invitrogen) at 37°C with 5% CO2. 48 well plates were coated with Poly-L-Lysine (Biochrom) and HEK293 cells were seeded with 37,500 cells per well. Transient transfection in triplicates with 84 ng DNA/well using metafectene according to manufactures instructions (Biontex, Munich, Germany) was performed 28 hours later. 40 hours after transfection cells were pre-incubated for 5 minutes with stimulation buffer containing of MEM Earle's media and 1 mM 3-isobutyl-1-methylxanthine (IBMX, Sigma). This stimulation buffer was used for all further steps. […]. Ligands were all purchased from Sigma, Munich. Controls were incubated with tyramine, β-phenylethylamine, octopamine or isoprenaline for 45 minutes. All reactions were performed at 37°C with 5% CO2 saturated air and stopped by aspirating medium. Cells were lysed at 4°C for 2 h on a shaking platform with cell lysis buffer containing […] HEPES, 0.1% BSA, 0.3% Tween20 and 1 mM IBMX.
(§1) The competitive cyclic adenosine-monophosphate (cAMP) assay via Alphascreen (Perkin Elmer Life Science, Inc., Boston, MA) was carried out according to the manufacturers' protocol. Briefly, 5 µl of each sample were transferred to a 384 well plate. Acceptor beads were diluted in 1X HBSS with […] HEPES, 0.1% BSA, pH 7.4 and incubated for 30 minutes at room temperature. Then donor beads and 50 µM biotinylated cAMP diluted in the same way were added and incubated for an hour at room temperature. Measurement of the plate was performed using Berthold Microplate Reader (Berthold Technologies GmbH & Co. KG). Results are expressed in fold over mock (unstimulated empty vector). Dose response curves and bar graphs with mean ± SEM as well as statistical analysis (paired one-tailed t-test) were generated using GraphPad Prism Version 4.03.
Supplementary file pone.0027073.s001.tif: Figure S1 Dose response curves of hTAAR1 agonists. […]. HEK293 transiently expressing hTAAR1 were stimulated with each trace amine in concentrations ranging 0.1 mM to 10 nM. Shown are dose response curves fold over basal means ± SEM from n≥4 independent experiments of measured cAMP in triplicates as described in Material and Methods. […]. Data were analyzed using paired one-tailed t-test tested against basal value of hTAAR1. (TIF) Click here for additional data file.

hADRB2 = target: T2, hADRB2 (Homo sapiens, UniProt P07550); assay: cAMP accumulation (AlphaScreen) in HEK293 cells transiently transfected with hADRB2, ligand alone or co-stimulation with ISOP; details: for agonistic effect of the ligand alone: ligand alone 6.7 nM to 6700 nM, 45 min; for effect on ISOP stimulation: pre-incubation 6.7 nM to 6700 nM 15 min, then ISOP 1 nM to 10000 nM 30 min
T2 construct: HA tag (N); expressed in transfected cells; host or cells: HEK293 (ATCC-LGC), transient transfection, vector pcDps
T2 sequence (P07550 whole entry): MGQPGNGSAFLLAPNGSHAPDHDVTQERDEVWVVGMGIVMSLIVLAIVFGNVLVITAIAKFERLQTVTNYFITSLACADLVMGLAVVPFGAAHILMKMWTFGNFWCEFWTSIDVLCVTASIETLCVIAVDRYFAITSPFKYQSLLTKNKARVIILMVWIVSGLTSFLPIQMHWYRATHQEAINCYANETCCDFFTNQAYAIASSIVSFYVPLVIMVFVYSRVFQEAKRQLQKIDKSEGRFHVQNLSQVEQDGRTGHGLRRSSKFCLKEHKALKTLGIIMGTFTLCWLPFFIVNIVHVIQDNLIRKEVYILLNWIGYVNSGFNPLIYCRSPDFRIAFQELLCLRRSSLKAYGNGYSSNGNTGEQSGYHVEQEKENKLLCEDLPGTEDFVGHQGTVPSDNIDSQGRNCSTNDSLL
Experimental: (§2) We functionally tested the effects of particular trace amines at the human ADRB1 and ADRB2 (figure 3). […] Controls were stimulated with each trace amine and ISOP alone, respectively.
(§3) Figure 3 Characterization of hADRB1 and hADRB2 after trace amine challenge. HEK293 cells were transiently transfected with hADRB1 and hADRB2, respectively. […] As controls hADRB1 and hADRB2 were incubated with each substance alone with the same concentration for 45 minutes. Three to four independent experiments measured in duplex or tripletts mean ± SEM are depicted here. […] Maximal values were statistically analyzed using paired one-tail t-test compared to ISOP maximal stimulation. A-B) hADRB1 and hADRB2 were stimulated with ISOP and TYR alone and with both substances simultaneously.
Human β2-adrenergic receptor (ADRB2, NM_000024.5) was subcloned via EcoRI and SpeI with an N-terminal (HA)-tag as well.
Human embryonic kidney cells (HEK293) were cultured in Minimum Essential Medium (MEM) Earle's (Biochrom AG) supplemented with 10% FBS (PAA Laboratories GmbH), 100 U/ml penicillin, and 100 µg/ml streptomycin (Biochrom AG) and 2 mM L-glutamine (Invitrogen) at 37°C with 5% CO2. 48 well plates were coated with Poly-L-Lysine (Biochrom) and HEK293 cells were seeded with 37,500 cells per well. Transient transfection in triplicates with 84 ng DNA/well using metafectene according to manufactures instructions (Biontex, Munich, Germany) was performed 28 hours later. 40 hours after transfection cells were pre-incubated for 5 minutes with stimulation buffer containing of MEM Earle's media and 1 mM 3-isobutyl-1-methylxanthine (IBMX, Sigma). This stimulation buffer was used for all further steps. […] Ligands were all purchased from Sigma, Munich. Controls were incubated with tyramine, β-phenylethylamine, octopamine or isoprenaline for 45 minutes. All reactions were performed at 37°C with 5% CO2 saturated air and stopped by aspirating medium. Cells were lysed at 4°C for 2 h on a shaking platform with cell lysis buffer containing […] HEPES, 0.1% BSA, 0.3% Tween20 and 1 mM IBMX.
as §1, with “vector).” for “vector). Dose response curves and bar graphs with mean ± SEM as well as statistical analysis (paired one-tailed t-test) were generated using GraphPad Prism Version 4.03.”

hADRB1 = target: T3, hADRB1 (Homo sapiens, UniProt P08588)
T3 construct: HA tag (N); expressed in transfected cells; host or cells: HEK293 (ATCC-LGC), transient transfection, vector pcDps
T3 sequence (P08588 whole entry): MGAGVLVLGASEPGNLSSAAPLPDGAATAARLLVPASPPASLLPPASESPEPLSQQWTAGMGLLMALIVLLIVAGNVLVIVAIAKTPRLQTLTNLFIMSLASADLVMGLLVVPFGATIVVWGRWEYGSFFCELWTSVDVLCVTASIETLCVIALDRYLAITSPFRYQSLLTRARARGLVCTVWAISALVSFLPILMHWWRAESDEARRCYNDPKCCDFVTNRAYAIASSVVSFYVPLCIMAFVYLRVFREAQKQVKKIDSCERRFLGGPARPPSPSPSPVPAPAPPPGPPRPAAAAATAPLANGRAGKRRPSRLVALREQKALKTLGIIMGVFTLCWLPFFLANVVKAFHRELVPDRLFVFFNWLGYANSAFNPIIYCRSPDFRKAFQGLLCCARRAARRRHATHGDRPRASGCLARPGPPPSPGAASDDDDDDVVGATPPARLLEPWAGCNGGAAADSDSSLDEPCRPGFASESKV
Experimental: as §2, §3
Human embryonic kidney cells (HEK293) were cultured in Minimum Essential Medium (MEM) Earle's (Biochrom AG) supplemented with 10% FBS (PAA Laboratories GmbH), 100 U/ml penicillin, and 100 µg/ml streptomycin (Biochrom AG) and 2 mM L-glutamine (Invitrogen) at 37°C with 5% CO2. […]
The competitive cyclic adenosine-monophosphate (cAMP) assay via Alphascreen (Perkin Elmer Life Science, Inc., Boston, MA) was carried out according to the manufacturers' protocol. […] Measurement of the plate was performed using Berthold Microplate Reader (Berthold Technologies GmbH & Co. KG). […]

[1] = ligand alone, 45 min, HEK293, cAMP, mean ± SEM
[2] = ligand alone, HEK293, cAMP accumulation, mean ± SEM, n≥3, read-out: EC50

SMILES | activation of hTAAR1 (adenylyl cyclase stimulation, cAMP formation) (hTAAR1; HEK293, 45 min) | Emax (hTAAR1; [1]) | EC50 (hTAAR1; [2]) | agonistic effect of the ligand alone (hADRB2) | effect on ISOP stimulation (hADRB2) | effect on ISOP stimulation (hADRB1) | agonistic effect of the ligand alone (hADRB1; ligand alone 6.7 nM to 6700 nM, 45 min) | EC50 (hTAAR1) | Emax (hTAAR1) | activation of hTAAR1 (adenylyl cyclase stimulation, cAMP formation) (hTAAR1)
NCC(O)c1ccc(O)cc1 (centres unmarked) [OA, octopamine] | activate hTAAR1 | 172 ± 42 nM | 4.17 ± 1.47 µM | no agonistic effect | orthosteric antagonist | – | – | – | – | –
NCCc1ccccc1 [PEA, β-phenylethylamine] | activate hTAAR1 | 403 ± 54 nM | 0.26 ± 0.016 µM | no agonistic effects | non-competitively antagonized | non-competitively antagonized | no agonistic effects | – | – | –
NCCc1ccc(O)cc1 [TYR, tyramine] | – | – | – | no agonistic effect | allosteric antagonist | – | – | 1.54 ± 0.251 µM | 219 ± 67 nM | activate hTAAR1
